Values quoted from earlier work, collected in US8241397B2, “Adsorptive gas sampler using ionic nano-droplets” (Honeywell International Inc., priority 2008, dated 2012).

Conditions: water uptake

## CCCCCCn1cc[n+](C)c1.O=S(=O)([N-]S(=O)(=O)C(F)(F)F)C(F)(F)F [[C6MIM][TF2N]]
  Solubility of solvent H2O in ionic liquid (% w/w): 0.88% w/w

## CCCCn1cc[n+](C)c1.O=S(=O)([N-]S(=O)(=O)C(F)(F)F)C(F)(F)F [[C4MIM][TF2N], [C4MIM] bis(trifluoromethylsulfonyl) imide]
  Solubility of solvent H2O in ionic liquid (% w/w): 1.17% w/w

## CCCCCCCCn1cc[n+](C)c1.O=S(=O)([N-]S(=O)(=O)C(F)(F)F)C(F)(F)F [[C8MIM][TF2N]]
  Solubility of solvent H2O in ionic liquid (% w/w): 0.74% w/w
